Source: US20090324752A1, “COSMETIC USE OF ACTIVE INGREDIENTS INCREASING THE PRODUCTION OF GROWTH FACTORS” (CHANEL PARFUMS BEAUTE, priority 2006, published 2009)

System: Human dermal fibroblasts
Experiment: Stimulation of fibroblast proliferation by PDGF and FGFb (CellTiter 96 Aqueous One, absorbance 490 nm)
Assay type: cell-based
Settings: 24 h, compared to the control (untreated = 100.00)
Method: Human dermal fibroblasts from a single donor were obtained from Cascade. At the 7rd passage, cells were seeded in 96 well plates and cultured in Dulbecco's modified Eagle medium DMEM (Gibco BRL, Gaithersburg, USA) supplemented with 10% foetal bovine serum (FBS, PAA, Linz, Austria), […] L-glutamine (Gibco) and 1% penicillin/streptomycin (Gibco). All cell culture was performed at […] in 5% CO2 and 95% air. This fibroblast culture was incubated by two growth factors ([…] and FGFb) at various concentrations for 24 h. After 24 hours incubation, 200 μL dosed media from 96-well plate were removed. CellTiter 96 Aqueous One Solution Reagent was used as described by the manufacturer. The absorbance at 490 nm was recorded using a plate reader to evaluate cell proliferation. The controls were the non treated cells. The experiment was conducted in 8 times by concentration.

FGFb (157 aa): Basic Fibroblast Growth Factor (157 aa), growth factor added to fibroblast culture
Stimulation (%) of fibroblast proliferation (1 ng/ml): 141.22% | Stimulation (%) of fibroblast proliferation (10 ng/ml): 149.20%

PDGF
Stimulation (%) of fibroblast proliferation (1 ng/ml): 107.20% | Stimulation (%) of fibroblast proliferation (10 ng/ml): 154.37% | Stimulation (%) of fibroblast proliferation (30 ng/ml): 185.58%
